# In patent US8952024B2, “Herbicidal pyrimidone derivatives” (E I du Pont de Nemours and Company, priority 2009, dated 2015):
# Columns and labels:
# Experiment in all cases: Test B pre-/postemergence plant response
# Assay type in all cases: in vivo
# [1] = test system: woolly cupgrass (Eriochloa villosa)
# In short: (§1)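 Pre-em in loam/sand; post-em at 1–4 leaf (2–18 cm) in peat mix. Solvent + surfactant formulation. Greenhouse 13–15 d; visual % control vs untreated, 0–100.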
# [2] = test system: large crabgrass (Digitaria sanguinalis)
# In short: as §1
# [3] = test system: kochia (Kochia scoparia); details: Postemergence; for Kochia plant response rating: 250 g ai/ha, scale 0 to 100
# In short: as §1
# [4] = test system: wheat (Triticum aestivum)
# In short: as §1
# [5] = test system: goosegrass (Eleusine indica)
# In short: as §1
# [6] = test system: yellow nutsedge (Cyperus esculentus)
# In short: as §1
# [7] = test system: green foxtail (Setaria viridis)
# In short: as §1
# [8] = test system: lambsquarters (Chenopodium album)
# In short: as §1
# [9] = test system: bermudagrass (Cynodon dactylon)
# In short: as §1
# [10] = test system: ragweed (common ragweed, Ambrosia elatior)
# In short: as §1
# [11] = test system: johnsongrass (Sorghum halepense)
# In short: as §1
# [12] = test system: soybean (Glycine max)
# In short: as §1
# [13] = test system: velvetleaf (Abutilon theophrasti)
# In short: as §1
# [14] = 250 g ai/ha, Preemergence, 0 to 100 scale
# [15] = Postemergence, 31 g ai/ha, scale 0 to 100 (0 no effect, 100 complete control)
# [16] = Postemergence, 62 g ai/ha, scale 0 (no effect) to 100 (complete control), 13 to 15 days
# [17] = Postemergence, 125 g ai/ha, visual rating after 13 to 15 days, scale 0 (no effect) to 100 (complete control)
# [18] = Postemergence, 250 g ai/ha, scale 0 to 100
# [19] = Preemergence, 31 g ai/ha, scale 0 to 100 (0 no effect, 100 complete control)
# [20] = Preemergence, 62 g ai/ha, scale 0 to 100 (0 no effect, 100 complete control)
# [21] = Preemergence, 125 g ai/ha, 0 to 100 scale
# [22] = 62 g ai/ha, scale 0 (no effect) to 100 (complete control), 13 to 15 days
# [23] = 125 g ai/ha, visual rating after 13 to 15 days, scale 0 (no effect) to 100 (complete control)
structure (smiles),measurement,setting,value
Cc1c(Cl)cccc1-n1c(-c2ccccc2)ncc(C(=O)C2=C(O)CCCC2=O)c1=O [Compound 40],"Plant response rating, Cupgrass, Woolly",[1]; [14],85
same,"Plant response rating, Cupgrass, Woolly",[1]; [15],90
same,"Plant response rating, Cupgrass, Woolly",[1]; [16],95
same,"Plant response rating, Cupgrass, Woolly",[1]; [17],98
same,"Cupgrass, Woolly plant response rating",[1]; [18],98
same,"Plant response rating, Cupgrass, Woolly",[1]; [19],0
same,"Plant response rating, Cupgrass, Woolly",[1]; [20],50
same,"Cupgrass, Woolly plant response rating",[1]; [21],70
same,"Plant response rating, Crabgrass, Large",[2]; [14],100
same,"Plant response rating, Crabgrass, Large",[2]; [15],85
same,"Plant response rating, Crabgrass, Large",[2]; [16],98
same,"Plant response rating, Crabgrass, Large",[2]; [17],100
same,"Crabgrass, Large plant response rating",[2]; [18],100
same,"Plant response rating, Crabgrass, Large",[2]; [19],70
same,"Plant response rating, Crabgrass, Large",[2]; [20],98
same,"Crabgrass, Large plant response rating",[2]; [21],100
same,"Plant response rating, Kochia",[3]; [22],0
same,"Plant response rating, Kochia",[3]; [23],10
same,Kochia plant response rating,[3],75
same,"Plant response rating, Wheat",[4]; [16],20
same,"Plant response rating, Wheat",[4]; [17],30
same,"Plant response rating, Wheat",[4]; [19],0
same,Wheat plant response rating,[4]; [21],0
same,"Plant response rating, Goosegrass",[5]; [14],100
same,"Plant response rating, Goosegrass",[5]; [16],90
same,"Plant response rating, Goosegrass",[5]; [17],95
same,Goosegrass plant response rating,[5]; [18],98
same,"Plant response rating, Goosegrass",[5]; [19],80
same,Goosegrass plant response rating,[5]; [21],100
same,"Plant response rating, Nutsedge, Yellow",[6]; [14],85
same,"Plant response rating, Nutsedge, Yellow",[6]; [16],35
same,"Plant response rating, Nutsedge, Yellow",[6]; [17],55
same,"Plant response rating, Nutsedge, Yellow",[6]; [19],10
same,"Nutsedge, Yellow plant response rating",[6]; [21],65
same,"Plant response rating, Foxtail, Green",[7]; [14],100
same,"Plant response rating, Foxtail, Green",[7]; [15],90
same,"Plant response rating, Foxtail, Green",[7]; [16],95
same,"Plant response rating, Foxtail, Green",[7]; [17],95
same,"Foxtail, Green plant response rating",[7]; [18],95
same,"Plant response rating, Foxtail, Green",[7]; [19],0
same,"Plant response rating, Foxtail, Green",[7]; [20],85
same,"Foxtail, Green plant response rating",[7]; [21],85
same,"Plant response rating, Lambsquarters",[8]; [14],100
same,"Plant response rating, Lambsquarters",[8]; [16],100
same,"Plant response rating, Lambsquarters",[8]; [17],100
same,Lambsquarters plant response rating,[8]; [18],100
same,"Plant response rating, Lambsquarters",[8]; [19],100
same,"Plant response rating, Lambsquarters",[8]; [20],100
same,Lambsquarters plant response rating,[8]; [21],100
same,"Plant response rating, Bermudagrass",[9]; [14],100
same,"Plant response rating, Bermudagrass",[9]; [16],100
same,"Plant response rating, Bermudagrass",[9]; [17],100
same,Bermudagrass plant response rating,[9]; [18],100
same,"Plant response rating, Bermudagrass",[9]; [19],98
same,"Plant response rating, Bermudagrass",[9]; [20],100
same,Bermudagrass plant response rating,[9]; [21],100
same,"Plant response rating, Ragweed",[10]; [14],95
same,"Plant response rating, Ragweed",[10]; [16],98
same,"Plant response rating, Ragweed",[10]; [17],98
same,"Plant response rating, Ragweed",[10]; [19],75
same,Ragweed plant response rating,[10]; [21],90
same,"Plant response rating, Johnsongrass",[11]; [14],90
same,"Plant response rating, Johnsongrass",[11]; [17],75
same,Johnsongrass plant response rating,[11]; [18],100
same,"Plant response rating, Johnsongrass",[11]; [19],10
same,"Plant response rating, Johnsongrass",[11]; [20],80
same,Johnsongrass plant response rating,[11]; [21],85
same,"Plant response rating, Soybean",[12]; [14],70
same,"Plant response rating, Soybean",[12]; [16],100
same,"Plant response rating, Soybean",[12]; [17],100
same,"Plant response rating, Soybean",[12]; [19],0
same,Soybean plant response rating,[12]; [21],20
same,"Plant response rating, Velvetleaf",[13]; [14],100
same,"Plant response rating, Velvetleaf",[13]; [16],100
same,"Plant response rating, Velvetleaf",[13]; [17],100
same,"Plant response rating, Velvetleaf",[13]; [19],80
same,Velvetleaf plant response rating,[13]; [21],100
Cc1ccc(-n2c(-c3ccccc3)ncc(C(=O)C3=C(O)CCCC3=O)c2=O)cc1 [Compound 8],"Plant response rating, Cupgrass, Woolly",[1]; [15],75
same,"Plant response rating, Cupgrass, Woolly",[1]; [16],80
same,"Plant response rating, Cupgrass, Woolly",[1]; [17],90
same,"Cupgrass, Woolly plant response rating",[1]; [18],100
same,"Plant response rating, Crabgrass, Large",[2]; [15],70
same,"Plant response rating, Crabgrass, Large",[2]; [16],85
same,"Plant response rating, Crabgrass, Large",[2]; [17],90
same,"Crabgrass, Large plant response rating",[2]; [18],100
same,"Plant response rating, Kochia","[3]; 31 g ai/ha, scale 0 to 100 (0 no effect, 100 complete control)",85
same,"Plant response rating, Kochia",[3]; [22],100
same,"Plant response rating, Kochia",[3]; [23],100
same,Kochia plant response rating,[3],100
same,"Plant response rating, Wheat",[4]; [15],25
same,"Plant response rating, Wheat",[4]; [16],30
same,"Plant response rating, Wheat",[4]; [17],35
same,Wheat plant response rating,[4]; [18],35
same,"Plant response rating, Goosegrass",[5]; [15],80
same,"Plant response rating, Goosegrass",[5]; [16],85
same,"Plant response rating, Goosegrass",[5]; [17],95
same,Goosegrass plant response rating,[5]; [18],100
same,"Plant response rating, Nutsedge, Yellow",[6]; [15],65
same,"Plant response rating, Nutsedge, Yellow",[6]; [16],70
same,"Plant response rating, Nutsedge, Yellow",[6]; [17],80
same,"Nutsedge, Yellow plant response rating",[6]; [18],85
same,"Plant response rating, Foxtail, Green",[7]; [15],40
same,"Plant response rating, Foxtail, Green",[7]; [16],70
same,"Plant response rating, Foxtail, Green",[7]; [17],85
same,"Foxtail, Green plant response rating",[7]; [18],95
same,"Plant response rating, Lambsquarters",[8]; [15],95
same,"Plant response rating, Lambsquarters",[8]; [16],100
same,"Plant response rating, Lambsquarters",[8]; [17],100
same,Lambsquarters plant response rating,[8]; [18],100
same,"Plant response rating, Bermudagrass",[9]; [15],60
same,"Plant response rating, Bermudagrass",[9]; [16],85
same,"Plant response rating, Bermudagrass","[9]; Postemergence, 125 g ai/ha, scale 0 to 100 (0 no effect, 100 complete control), 13 to 15 days",95
same,Bermudagrass plant response rating,[9]; [18],100
same,"Plant response rating, Ragweed",[10]; [15],90
same,"Plant response rating, Ragweed",[10]; [16],100
same,"Plant response rating, Ragweed",[10]; [17],100
same,Ragweed plant response rating,[10]; [18],100
same,"Plant response rating, Johnsongrass",[11]; [15],80
same,"Plant response rating, Johnsongrass",[11]; [16],98
same,"Plant response rating, Johnsongrass",[11]; [17],98
same,Johnsongrass plant response rating,[11]; [18],100
same,"Plant response rating, Soybean",[12]; [15],98
same,"Plant response rating, Soybean",[12]; [16],98
same,"Plant response rating, Soybean",[12]; [17],98
same,Soybean plant response rating,[12]; [18],100
same,"Plant response rating, Velvetleaf",[13]; [15],75
same,"Plant response rating, Velvetleaf",[13]; [16],80
same,"Plant response rating, Velvetleaf",[13]; [17],95
same,Velvetleaf plant response rating,[13]; [18],100
